Data from ChEMBL document CHEMBL5696442, “Discovery of type II inhibitors of TGFβ-activated kinase 1 (TAK1) and mitogen-activated protein kinase kinase kinase kinase 2 (MAP4K2)” (J Med Chem, 2015).
Calls of active or inactive are those of the source. The calls are words filed in the database; no cut-off is given here.

How the values were obtained:
[1] = target: Serine/threonine-protein kinase Nek6 (Homo sapiens) (UniProt Q9HC98); assay: Inhibition of NEK6 Lys2 labeling site harbouring VMHRDIKPANVFITATGVVK in human Huh-7 cells at 1 uM by KiNativ Profiling analysis relative to control; assay type: cell-based
[2] = target: T1, Aurora kinase A (Homo sapiens) (UniProt O14965); assay: Inhibition of AurA ATP labeling site in human Huh-7 cell lysate at 1 uM by KiNativ Profiling analysis relative to control; assay type: subcellular
T1 sequence (whole entry): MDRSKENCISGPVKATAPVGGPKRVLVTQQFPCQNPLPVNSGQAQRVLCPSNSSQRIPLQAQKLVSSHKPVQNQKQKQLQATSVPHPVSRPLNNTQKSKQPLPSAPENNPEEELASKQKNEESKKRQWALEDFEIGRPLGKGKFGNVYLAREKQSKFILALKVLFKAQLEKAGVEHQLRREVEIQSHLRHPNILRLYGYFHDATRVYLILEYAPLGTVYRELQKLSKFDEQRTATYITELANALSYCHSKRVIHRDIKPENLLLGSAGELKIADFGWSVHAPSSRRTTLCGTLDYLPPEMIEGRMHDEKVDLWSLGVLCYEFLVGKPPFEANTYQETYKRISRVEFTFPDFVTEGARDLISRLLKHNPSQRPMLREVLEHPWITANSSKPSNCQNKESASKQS

[3] = target: T2, Mitogen-activated protein kinase kinase kinase 5 (Homo sapiens) (UniProt Q99683); assay: Inhibition of ASK1 (unknown origin) at 10 uM by Ambit Kinomescan binding assay
T2 sequence (whole entry): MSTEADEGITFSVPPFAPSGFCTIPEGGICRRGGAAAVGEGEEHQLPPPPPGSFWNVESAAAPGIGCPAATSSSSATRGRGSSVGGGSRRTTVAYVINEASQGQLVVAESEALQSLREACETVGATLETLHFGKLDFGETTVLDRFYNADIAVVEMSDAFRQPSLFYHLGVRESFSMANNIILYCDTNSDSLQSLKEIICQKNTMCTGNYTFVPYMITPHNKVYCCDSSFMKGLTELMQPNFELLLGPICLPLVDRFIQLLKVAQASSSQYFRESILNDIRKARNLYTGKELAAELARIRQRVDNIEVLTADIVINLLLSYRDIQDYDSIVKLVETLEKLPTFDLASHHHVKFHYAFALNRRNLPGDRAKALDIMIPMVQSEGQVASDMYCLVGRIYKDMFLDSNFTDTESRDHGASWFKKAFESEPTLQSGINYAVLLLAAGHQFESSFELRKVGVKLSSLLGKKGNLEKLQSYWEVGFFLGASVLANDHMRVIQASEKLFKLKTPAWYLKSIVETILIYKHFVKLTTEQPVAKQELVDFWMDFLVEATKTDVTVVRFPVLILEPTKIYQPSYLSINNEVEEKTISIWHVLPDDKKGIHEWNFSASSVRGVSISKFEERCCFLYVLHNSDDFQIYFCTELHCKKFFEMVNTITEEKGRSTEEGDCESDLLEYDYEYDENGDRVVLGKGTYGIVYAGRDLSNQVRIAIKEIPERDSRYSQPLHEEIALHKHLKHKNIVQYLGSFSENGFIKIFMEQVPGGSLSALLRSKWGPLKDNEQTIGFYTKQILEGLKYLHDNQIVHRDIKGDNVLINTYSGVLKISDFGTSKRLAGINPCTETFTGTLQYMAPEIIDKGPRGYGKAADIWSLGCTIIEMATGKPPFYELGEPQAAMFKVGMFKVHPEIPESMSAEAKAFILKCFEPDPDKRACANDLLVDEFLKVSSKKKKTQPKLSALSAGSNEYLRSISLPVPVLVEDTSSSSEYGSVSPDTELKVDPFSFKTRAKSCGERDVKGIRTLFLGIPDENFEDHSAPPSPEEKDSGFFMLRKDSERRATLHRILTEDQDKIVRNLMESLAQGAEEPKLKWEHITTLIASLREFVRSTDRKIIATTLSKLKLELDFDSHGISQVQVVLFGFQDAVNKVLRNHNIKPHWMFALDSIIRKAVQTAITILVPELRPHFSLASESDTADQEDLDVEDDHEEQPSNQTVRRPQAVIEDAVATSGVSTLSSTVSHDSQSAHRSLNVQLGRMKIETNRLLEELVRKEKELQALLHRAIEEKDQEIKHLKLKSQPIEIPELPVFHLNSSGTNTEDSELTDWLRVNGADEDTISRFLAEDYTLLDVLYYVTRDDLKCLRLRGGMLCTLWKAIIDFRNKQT

[4] = tested on: eIF-2-alpha kinase GCN2 (Homo sapiens), Q9P2K8 [S808G]; assay: Inhibition of GCN2 kinase domain S808G mutant (unknown origin) at 10 uM by Ambit Kinomescan binding assay
[5] = target: T3, Mitogen-activated protein kinase kinase kinase kinase 2 (Homo sapiens) (UniProt Q12851); assay: Inhibition of MAP4K2 (GCK) Lys2 labeling site in human A-375 cells at 0.05 uM by KiNativ Profiling analysis relative to control; assay type: cell-based
T3 sequence (whole entry): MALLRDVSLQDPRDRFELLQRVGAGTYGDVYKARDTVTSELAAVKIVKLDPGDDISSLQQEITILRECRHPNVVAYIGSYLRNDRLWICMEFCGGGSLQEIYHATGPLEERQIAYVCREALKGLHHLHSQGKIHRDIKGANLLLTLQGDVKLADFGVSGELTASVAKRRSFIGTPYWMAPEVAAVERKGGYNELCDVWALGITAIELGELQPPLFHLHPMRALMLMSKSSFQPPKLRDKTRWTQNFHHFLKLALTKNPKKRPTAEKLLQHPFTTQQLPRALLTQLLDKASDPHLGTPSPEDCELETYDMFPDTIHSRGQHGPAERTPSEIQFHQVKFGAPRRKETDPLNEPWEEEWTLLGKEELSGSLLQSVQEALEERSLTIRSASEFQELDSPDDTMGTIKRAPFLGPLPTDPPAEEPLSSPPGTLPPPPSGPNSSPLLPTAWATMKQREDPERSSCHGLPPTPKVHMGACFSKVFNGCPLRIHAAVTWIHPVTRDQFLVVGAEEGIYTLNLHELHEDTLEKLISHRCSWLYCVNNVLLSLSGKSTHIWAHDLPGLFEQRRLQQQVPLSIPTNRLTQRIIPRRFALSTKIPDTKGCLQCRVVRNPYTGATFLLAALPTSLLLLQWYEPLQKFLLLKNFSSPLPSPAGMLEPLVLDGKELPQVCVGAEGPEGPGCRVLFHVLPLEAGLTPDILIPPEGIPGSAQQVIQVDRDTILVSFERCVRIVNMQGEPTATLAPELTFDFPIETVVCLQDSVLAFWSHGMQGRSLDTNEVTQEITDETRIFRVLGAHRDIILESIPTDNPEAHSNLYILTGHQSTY

[6] = target: Death-associated protein kinase 1 (Homo sapiens) (UniProt P53355); assay: Inhibition of DAPK1 (unknown origin) at 1 uM by Ambit Kinomescan binding assay relative to control; values are per cent of control
[7] = target: Serine/threonine-protein kinase 38-like (Homo sapiens) (UniProt Q9Y2H1); assay: Inhibition of NDR2 ACT labeling site in human A-375 cells at 5 uM by KiNativ Profiling analysis relative to control; assay type: cell-based
Chain of Serine/threonine-protein kinase 38-like (Homo sapiens) (Q9Y2H1 2-464 limits assumed): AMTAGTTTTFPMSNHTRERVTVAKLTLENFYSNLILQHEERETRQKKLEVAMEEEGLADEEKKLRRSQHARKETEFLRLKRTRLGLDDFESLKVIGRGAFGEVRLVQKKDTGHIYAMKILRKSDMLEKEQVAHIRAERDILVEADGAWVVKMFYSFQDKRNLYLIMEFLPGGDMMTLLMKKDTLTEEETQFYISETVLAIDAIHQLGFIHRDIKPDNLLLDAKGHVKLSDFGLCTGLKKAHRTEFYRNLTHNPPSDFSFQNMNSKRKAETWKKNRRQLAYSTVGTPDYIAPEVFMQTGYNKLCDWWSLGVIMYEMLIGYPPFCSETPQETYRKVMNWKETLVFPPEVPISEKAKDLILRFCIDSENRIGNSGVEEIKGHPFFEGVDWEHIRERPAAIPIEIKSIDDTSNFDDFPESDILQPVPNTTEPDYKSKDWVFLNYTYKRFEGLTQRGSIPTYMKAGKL

Chain of Death-associated protein kinase 1 (Homo sapiens) (P53355 whole entry, looked up): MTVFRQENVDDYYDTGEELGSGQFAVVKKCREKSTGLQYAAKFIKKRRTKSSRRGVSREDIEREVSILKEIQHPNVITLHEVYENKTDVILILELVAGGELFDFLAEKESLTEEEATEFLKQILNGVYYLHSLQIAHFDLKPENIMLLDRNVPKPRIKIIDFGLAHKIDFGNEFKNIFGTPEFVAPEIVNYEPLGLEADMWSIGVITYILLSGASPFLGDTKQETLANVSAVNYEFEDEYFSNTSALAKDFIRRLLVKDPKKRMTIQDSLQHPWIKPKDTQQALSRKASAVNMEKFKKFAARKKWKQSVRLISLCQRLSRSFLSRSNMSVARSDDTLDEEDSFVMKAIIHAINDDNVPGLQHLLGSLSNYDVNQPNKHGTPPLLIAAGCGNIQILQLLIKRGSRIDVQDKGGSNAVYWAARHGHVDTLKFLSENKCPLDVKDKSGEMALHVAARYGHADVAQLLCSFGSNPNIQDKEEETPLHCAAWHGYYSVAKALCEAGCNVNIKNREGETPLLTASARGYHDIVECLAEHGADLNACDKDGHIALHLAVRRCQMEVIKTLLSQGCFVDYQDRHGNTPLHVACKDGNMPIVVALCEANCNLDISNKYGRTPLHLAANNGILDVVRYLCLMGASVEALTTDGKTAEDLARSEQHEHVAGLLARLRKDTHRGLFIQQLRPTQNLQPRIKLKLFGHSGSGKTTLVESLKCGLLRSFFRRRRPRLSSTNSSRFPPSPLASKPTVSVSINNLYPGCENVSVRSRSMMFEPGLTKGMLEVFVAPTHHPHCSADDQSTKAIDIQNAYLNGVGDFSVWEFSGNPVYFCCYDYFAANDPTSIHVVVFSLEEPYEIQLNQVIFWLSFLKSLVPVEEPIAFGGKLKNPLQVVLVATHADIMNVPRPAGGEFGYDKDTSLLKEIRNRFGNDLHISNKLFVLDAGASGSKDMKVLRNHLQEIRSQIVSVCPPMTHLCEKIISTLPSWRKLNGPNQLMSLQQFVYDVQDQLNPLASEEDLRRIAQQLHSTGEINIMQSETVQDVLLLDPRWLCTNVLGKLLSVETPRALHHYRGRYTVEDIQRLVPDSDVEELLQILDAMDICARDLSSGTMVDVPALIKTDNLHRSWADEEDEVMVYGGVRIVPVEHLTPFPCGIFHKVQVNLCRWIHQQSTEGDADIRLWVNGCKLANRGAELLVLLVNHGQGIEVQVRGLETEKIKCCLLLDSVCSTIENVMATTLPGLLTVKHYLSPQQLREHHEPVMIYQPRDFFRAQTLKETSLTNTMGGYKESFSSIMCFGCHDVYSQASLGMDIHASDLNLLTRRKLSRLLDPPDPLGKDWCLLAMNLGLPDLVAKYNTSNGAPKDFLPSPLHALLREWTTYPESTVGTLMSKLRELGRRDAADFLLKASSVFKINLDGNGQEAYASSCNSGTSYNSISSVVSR
Chain of eIF-2-alpha kinase GCN2 (Homo sapiens), Q9P2K8 [S808G] (Q9P2K8 whole entry S808G, the tested form may be a part): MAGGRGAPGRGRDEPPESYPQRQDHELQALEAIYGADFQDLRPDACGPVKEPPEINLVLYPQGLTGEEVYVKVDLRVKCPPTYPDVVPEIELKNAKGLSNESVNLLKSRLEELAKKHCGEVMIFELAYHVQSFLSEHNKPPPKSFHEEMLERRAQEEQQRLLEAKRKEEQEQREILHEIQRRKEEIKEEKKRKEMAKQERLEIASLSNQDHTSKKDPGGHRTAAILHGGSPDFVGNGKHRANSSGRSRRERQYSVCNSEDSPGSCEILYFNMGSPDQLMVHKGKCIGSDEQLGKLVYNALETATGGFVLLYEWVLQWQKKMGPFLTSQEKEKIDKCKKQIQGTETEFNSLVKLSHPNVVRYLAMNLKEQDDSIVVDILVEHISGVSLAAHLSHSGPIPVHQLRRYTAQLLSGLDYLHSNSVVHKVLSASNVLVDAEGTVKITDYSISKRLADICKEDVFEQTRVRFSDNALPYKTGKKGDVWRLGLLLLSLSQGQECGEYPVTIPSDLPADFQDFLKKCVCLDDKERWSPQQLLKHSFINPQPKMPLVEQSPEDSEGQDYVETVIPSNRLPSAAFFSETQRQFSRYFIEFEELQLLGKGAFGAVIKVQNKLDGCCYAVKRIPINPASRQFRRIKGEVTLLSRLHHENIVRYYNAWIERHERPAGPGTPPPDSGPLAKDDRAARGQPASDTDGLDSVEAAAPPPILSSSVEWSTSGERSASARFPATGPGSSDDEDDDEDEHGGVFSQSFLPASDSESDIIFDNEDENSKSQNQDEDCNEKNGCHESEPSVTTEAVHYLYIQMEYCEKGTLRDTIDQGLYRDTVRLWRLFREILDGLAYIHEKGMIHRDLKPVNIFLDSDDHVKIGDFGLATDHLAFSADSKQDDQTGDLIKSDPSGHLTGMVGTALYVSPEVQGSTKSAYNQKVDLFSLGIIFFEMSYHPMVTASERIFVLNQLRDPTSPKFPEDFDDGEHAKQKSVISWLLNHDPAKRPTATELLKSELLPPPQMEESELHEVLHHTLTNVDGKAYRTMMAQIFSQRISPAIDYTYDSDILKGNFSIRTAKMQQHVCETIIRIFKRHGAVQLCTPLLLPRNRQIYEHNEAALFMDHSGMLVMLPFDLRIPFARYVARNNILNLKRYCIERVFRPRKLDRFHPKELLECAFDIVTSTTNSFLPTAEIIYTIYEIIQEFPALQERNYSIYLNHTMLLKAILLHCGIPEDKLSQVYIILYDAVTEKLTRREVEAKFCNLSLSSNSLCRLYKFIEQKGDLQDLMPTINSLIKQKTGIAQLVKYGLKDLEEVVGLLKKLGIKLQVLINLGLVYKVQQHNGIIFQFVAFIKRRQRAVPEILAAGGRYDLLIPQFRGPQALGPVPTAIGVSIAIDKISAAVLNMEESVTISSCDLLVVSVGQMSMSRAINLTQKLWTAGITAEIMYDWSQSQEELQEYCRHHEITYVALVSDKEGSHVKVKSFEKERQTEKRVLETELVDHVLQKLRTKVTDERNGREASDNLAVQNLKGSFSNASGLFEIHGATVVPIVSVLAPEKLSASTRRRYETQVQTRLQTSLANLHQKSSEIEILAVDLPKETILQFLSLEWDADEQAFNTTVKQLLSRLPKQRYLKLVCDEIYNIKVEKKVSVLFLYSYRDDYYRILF
Chain of Serine/threonine-protein kinase Nek6 (Homo sapiens) (Q9HC98 whole entry): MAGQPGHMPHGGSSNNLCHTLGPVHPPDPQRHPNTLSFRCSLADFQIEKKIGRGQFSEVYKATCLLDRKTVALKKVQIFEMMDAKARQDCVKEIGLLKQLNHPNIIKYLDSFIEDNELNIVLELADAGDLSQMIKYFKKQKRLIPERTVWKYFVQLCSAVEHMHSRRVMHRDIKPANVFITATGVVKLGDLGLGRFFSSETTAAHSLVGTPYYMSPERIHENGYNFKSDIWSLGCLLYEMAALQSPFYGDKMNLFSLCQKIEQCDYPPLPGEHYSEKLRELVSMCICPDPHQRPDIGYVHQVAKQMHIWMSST

Structure (SMILES): CNc1cc(Oc2cc(C(=O)Nc3cc(N4CCN(C)CC4)cc(C(F)(F)F)c3)ccc2C)ncn1
- inhibition [1]: 6.9%
- inhibition [2]: 2.5%

Structure (SMILES): CCN1CCN(Cc2ccc(NC(=O)c3ccc(C)c(Oc4ccnc5[nH]ccc45)c3)cc2C(F)(F)F)CC1
- inhibition [3]: inactive
- inhibition [4]: inactive
- inhibition [5]: 95.1%

Structure (SMILES): CCN1CCN(Cc2ccc(NC(=O)c3ccc(C)c(/C=C/c4cnc5[nH]ccc5c4OC)c3)cc2C(F)(F)F)CC1
- residual activity [6]: 77%
- inhibition [7]: -2.6%
